Measurements taken from patent publication US20250034216A1, “STEREOSELECTIVE COVALENT LIGANDS FOR ONCOGENIC AND IMMUNOLOGICAL PROTEINS” (The Scripps Research Institute, priority 2021, published 2025).

How the values were obtained:
Assay in all cases: IA-DTB cysteine engagement
Type in all cases: binding
Conditions in all cases: 22Rv1 cells, 20 μM probe, 1 h, relative to DMSO
SPATA2_C41 = molecular target: T1, SPATA2_C41 (Homo sapiens, UniProt Q9UM82)
T1 construct: endogenous in cells; host or cells: 22Rv1
T1 sequence (Q9UM82 1-520): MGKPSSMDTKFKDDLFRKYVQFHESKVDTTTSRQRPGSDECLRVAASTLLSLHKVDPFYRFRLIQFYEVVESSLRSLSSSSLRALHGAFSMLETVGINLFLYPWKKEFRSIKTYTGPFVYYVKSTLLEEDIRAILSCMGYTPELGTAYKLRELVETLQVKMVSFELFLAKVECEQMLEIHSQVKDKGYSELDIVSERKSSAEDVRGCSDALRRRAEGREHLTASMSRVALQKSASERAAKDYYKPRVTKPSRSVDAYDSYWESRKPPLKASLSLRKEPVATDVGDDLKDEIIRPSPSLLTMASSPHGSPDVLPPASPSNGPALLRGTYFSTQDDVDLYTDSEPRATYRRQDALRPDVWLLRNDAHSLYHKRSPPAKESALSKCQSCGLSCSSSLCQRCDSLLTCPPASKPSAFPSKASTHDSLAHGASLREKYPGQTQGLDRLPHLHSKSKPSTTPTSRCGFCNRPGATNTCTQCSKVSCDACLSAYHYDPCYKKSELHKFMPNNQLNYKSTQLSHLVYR
In short: (§1)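 Read-out is TMT-based cysteine engagement, expressed as each reporter ion intensity divided by the average of the DMSO channels. Before that, probe-treated cell lysates were capped with IA-DTB, digested, enriched on streptavidin and TMT-tagged. PSMs with DMSO summed intensity <10,000 or DMSO CV >0.5 were excluded.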

NT5DC1_C119 = molecular target: T2, NT5DC1_C119 (Homo sapiens, UniProt Q5TFE4)
T2 construct: endogenous in cells; host or cells: 22Rv1
T2 sequence (Q5TFE4 1-455): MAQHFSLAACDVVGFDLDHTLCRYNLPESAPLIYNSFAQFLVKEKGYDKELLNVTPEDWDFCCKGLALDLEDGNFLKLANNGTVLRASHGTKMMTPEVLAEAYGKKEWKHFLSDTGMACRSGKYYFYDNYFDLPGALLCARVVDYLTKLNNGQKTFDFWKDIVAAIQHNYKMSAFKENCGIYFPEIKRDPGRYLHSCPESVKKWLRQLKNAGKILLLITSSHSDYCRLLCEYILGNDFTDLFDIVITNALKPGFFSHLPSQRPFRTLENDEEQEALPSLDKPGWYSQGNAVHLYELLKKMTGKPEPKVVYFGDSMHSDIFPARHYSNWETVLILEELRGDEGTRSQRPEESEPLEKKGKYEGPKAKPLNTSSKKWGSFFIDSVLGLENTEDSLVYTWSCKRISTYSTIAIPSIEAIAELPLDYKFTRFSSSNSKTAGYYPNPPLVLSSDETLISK
In short: as §1

HNRNPLL_C235 = molecular target: T3, HNRNPLL_C235 (Homo sapiens, UniProt Q8WVV9)
T3 construct: endogenous in cells; host or cells: 22Rv1
T3 sequence (Q8WVV9 1-542): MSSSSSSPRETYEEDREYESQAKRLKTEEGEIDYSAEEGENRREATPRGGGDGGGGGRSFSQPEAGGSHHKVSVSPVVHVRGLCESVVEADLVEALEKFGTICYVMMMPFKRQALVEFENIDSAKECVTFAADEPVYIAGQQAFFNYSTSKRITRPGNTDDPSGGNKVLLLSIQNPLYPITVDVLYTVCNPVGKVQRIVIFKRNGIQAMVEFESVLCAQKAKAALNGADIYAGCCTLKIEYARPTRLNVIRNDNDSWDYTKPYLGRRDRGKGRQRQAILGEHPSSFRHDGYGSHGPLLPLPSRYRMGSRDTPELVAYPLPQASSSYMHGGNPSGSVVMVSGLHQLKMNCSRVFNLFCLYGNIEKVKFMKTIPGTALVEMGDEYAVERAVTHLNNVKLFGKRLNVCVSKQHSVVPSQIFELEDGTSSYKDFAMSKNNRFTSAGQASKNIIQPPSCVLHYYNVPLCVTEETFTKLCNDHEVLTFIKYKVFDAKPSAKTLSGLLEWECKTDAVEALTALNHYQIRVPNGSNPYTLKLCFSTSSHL
In short: as §1

% engagement SPATA2_C41 (SPATA2_C41) [%]	% engagement NT5DC1_C119 (NT5DC1_C119) [%]	% engagement HNRNPLL_C235 (HNRNPLL_C235) [%]	Structure (SMILES)
29.5	79.5	75	C=CC(=O)N1C[C@H](c2ccc(Br)cc2)[C@H]1C(=O)Nc1cccc2cccnc12 [MY-3B, (2S,3S)-1-acryloyl-3-(4-bromophenyl)-N-(quinolin-8-yl)azetidine-2-carboxamide]
91.75	63.25	34	C=CC(=O)N1C[C@H](c2ccc(Br)cc2)[C@@H]1C(=O)Nc1cccc2cccnc12 [MY-1B, (2R,3S)-1-acryloyl-3-(4-bromophenyl)-N-(quinolin-8-yl)azetidine-2-carboxamide]
24.5	93.5	−7.5	C=CC(=O)N1C[C@H](c2ccc(Br)cc2)[C@H]1C(=O)Nc1cccc2cccnc12 [MY-3A, (2S,3S)-1-acryloyl-3-(4-bromophenyl)-N-(quinolin-8-yl)azetidine-2-carboxamide]
58	49	15	C=CC(=O)N1C[C@@H](c2ccc(Br)cc2)[C@H]1C(=O)Nc1cccc2cccnc12 [MY-1A, (2S,3R)-1-acryloyl-3-(4-bromophenyl)-N-(quinolin-8-yl)azetidine-2-carboxamide]
